# Values quoted from earlier work, collected in patent US20030077758A1, “Myc repressor modulation to treat aging-related disorders” (priority 2000, published 2003).
# Target: AP-2 (Homo sapiens, UniProt P05549)
# Details: in vitro; apparently by oxidizing cysteine residues in the AP-2 DNA binding domain
# Sequence of AP-2 (P05549 whole entry, species assumed, the tested form may be a part): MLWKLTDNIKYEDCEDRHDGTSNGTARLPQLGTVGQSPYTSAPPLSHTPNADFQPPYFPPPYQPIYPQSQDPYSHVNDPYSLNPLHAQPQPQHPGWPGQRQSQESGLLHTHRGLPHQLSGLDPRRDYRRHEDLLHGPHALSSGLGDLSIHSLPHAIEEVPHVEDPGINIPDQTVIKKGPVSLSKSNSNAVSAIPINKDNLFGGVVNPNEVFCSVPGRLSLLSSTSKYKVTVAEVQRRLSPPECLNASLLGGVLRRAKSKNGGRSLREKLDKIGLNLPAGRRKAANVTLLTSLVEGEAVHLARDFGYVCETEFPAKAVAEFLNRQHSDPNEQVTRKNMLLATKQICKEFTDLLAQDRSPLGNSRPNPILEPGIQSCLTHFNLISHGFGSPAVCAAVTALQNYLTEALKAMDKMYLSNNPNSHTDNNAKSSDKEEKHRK
row,AP-2 DNA binding activity,Compound
1,inhibited,OO [hydrogen peroxide]
2,inhibited,CN(C)C(=O)/N=N/C(=O)N(C)C [diamide]
